From patent US10300065B2, “Method of treating or prevention of atherothrombotic events in patients with history of myocardial infarction” (ASTRAZENECA AB, priority 2015, dated 2019)
Read-outs that look alike come from different tables or passages of the source.

Tests used:
[1] = clinical; assay type: in vivo; details: for concentration at 2 h: human, plasma, oral, post dose (2 h)
Method: The pharmacokinetics (PK) and pharmacodynamics of the 60 mg bid dose had not previously been studied. […] 180 patients who had received >4 weeks of study medication had blood sampling in the morning pre-maintenance dose and again 2 h post-dose. All patients were receiving aspirin. […] Well-known VerifyNow® P2Y12 assay and light transmittance aggregometry (LTA; ADP 20 uM) were performed. Groups were compared using Kruskal-Wallis test with significance attached to P<0.01 to allow for multiple group comparisons.

[2] = tested on: patients with a history of myocardial infarction; details: for TIMI major bleeding events per year if 10,000 patients were started on treatment versus placebo: intention-to-treat data; for Death: (%) / Death: n / Non-Cardiovascular death: (%) / Non-Cardiovascular death: n: intention-to-treat population; for proportion of patients who prematurely discontinued treatment: over the duration of the trial
Source text: Any erroneously treated patients (e.g., randomized to ticagrelor but actually given placebo) were to be accounted for in the actual treatment group.
The primary efficacy endpoint was the composite of cardiovascular death, myocardial infarction, or stroke. Secondary endpoints were cardiovascular death and all-cause mortality. The analysis of secondary endpoints proceeded in a hierarchical fashion, starting with cardiovascular death and then death from any cause. Additional endpoints listed below were evaluated on an exploratory basis. Exploratory efficacy endpoints included substituting coronary heart disease death for cardiovascular death, and the additional end points of urgent coronary revascularization, unstable angina, and transient ischemic attack. The primary safety endpoint was TIMI major bleeding. Other safety endpoints included intracranial hemorrhage (ICH) and fatal bleeding. […] A central clinical events committee whose members were unaware of the treatment assignments adjudicated all efficacy endpoints and bleeding episodes.
Safety analyses included all randomized patients who received at least one dose of study drug and for whom post-dose data were available. Patients were censored at the first of the pre-specified Common Study End Date, withdrawal of consent, or the last clinical event assessment. Safety was analyzed as on-treatment including all events occurring after first dose and within 7 days after the last dose of study drug. […] Event rates are expressed as Kaplan-Meier estimates of cumulative incidence.

[3] = tested on: patients with acute coronary syndrome; details: cited from earlier work
[4] = 60 mg bid (N = 6958), % of patients
[5] = 60 mg bid (N = 6958), listed as ticagrelor
[6] = 90 mg bid (N = 6988), listed as ticagrelor

## CCCSc1nc(N[C@@H]2C[C@H]2c2ccc(F)c(F)c2)c2nnn([C@@H]3C[C@H](OCCO)[C@@H](O)[C@H]3O)c2n1 [Ticagrelor, (1S,2S,3R,5S)-3-[7-{[(1R,2S)-2-(3,4-difluorophenyl)cyclopropyl]amino}-5-(propylthio)-3H-[1,2,3]-triazolo[4,5-d]pyrimidin-3-yl]-5-(2-hydroxyethoxy)cyclopentane-1,2-diol]
[1]; 60 mg vs 90 mg
  plasma ticagrelor levels lower with 60 mg vs 90 mg: approximately ⅓
[1]; 60 mg bid
  concentration at 2 h: 448 ng/mL
[1]; 90 mg bid
  concentration at 2 h: 717 ng/mL
[2]; 60 mg bid
  Dyspnea, 3-year event rate: 15.8%
  Fatal bleeding: ARI (%): −0.01%
  Hypotension: 0.66 events/100 pt years
  ICH: ARI (%): 0.14%
  ICH: NNH: 714
  TIMI major bleeding: ARI (%): 1.24%
  TIMI major bleeding: NNH: 81
  frequency of death (including bleeding): 4.2%
  frequency of death, bleeding events excluded: 3.9%
  median duration of resolved dyspnea adverse events: 31 days
  patients with serum creatinine concentration increased by >50%: approximately 4%
  syncope, patients reporting: 1.2%
  TIMI major bleeding events per year if 10,000 patients were started on treatment versus placebo: 31
  Death: (%): (4.1) %
  Death: n: 289
  Non-Cardiovascular death: (%): (1.6) %
  Non-Cardiovascular death: n: 113
[2]; 60 mg bid (N = 6958)
  Adverse event leading to death: (%): (2.1) %
  Adverse event leading to death: n: 149
  Adverse event leading to discontinuation of study drug: (%): (16.1) %
  Adverse event leading to discontinuation of study drug: n: 1117
  Any adverse event: (%): (75.7) %
  Any adverse event: n: 5268
  Any serious adverse event: (%): (21.5) %
  Any serious adverse event: n: 1499
  Bleeding leading to study drug discontinuation: 3-year Kaplan-Meier estimate: (6.2) %
  Bleeding leading to study drug discontinuation: n: 355
  Bleeding requiring transfusion: 3-year Kaplan-Meier estimate: (2.10) %
  Bleeding requiring transfusion: n: 105
  Bradyarrhythmia adverse event: (%): (1.7) %
  Bradyarrhythmia adverse event: n: 121
  Dyspnea AE: (%): (14.17) %
  Dyspnea AE: n: 986
  Dyspnea SAE: (%): (0.3) %
  Dyspnea SAE: n: 22
  Dyspnea leading to study drug discontinuation: (%): (4.3) %
  Dyspnea leading to study drug discontinuation: n: 296
  Fatal Bleeding: 3-year Kaplan-Meier estimate: (0.25) %
  Fatal Bleeding: n: 11
  Fatal bleeding or non-fatal intracranial hemorrhage: 3-year Kaplan-Meier estimate: (0.63) %
  Fatal bleeding or non-fatal intracranial hemorrhage: n: 32
  Fatal bleeding: (%) patients with event: (0.2) %
  Fatal bleeding: Events/100 pt yrs: 0.08 Events/100 pt yrs
  Gout adverse event: (%): (1.4) %
  Gout adverse event: n: 97
  Intracranial Hemorrhage: 3-year Kaplan-Meier estimate: (0.61) %
  Intracranial Hemorrhage: n: 28
  Intracranial hemorrhage: (%) patients with event: (0.4) %
  Intracranial hemorrhage: Events/100 pt yrs: 0.19 Events/100 pt yrs
  Renal adverse event: (%): (2.5) %
  Renal adverse event: n: 173
  Serious adverse event leading to discontinuation of study drug: (%): (3.7) %
  Serious adverse event leading to discontinuation of study drug: n: 255
  TIMI Major bleeding: 3-year Kaplan-Meier estimate: (2.30) %
  TIMI Major bleeding: n: 115
  TIMI Major or Minor: (%) patients with event: (2.4) %
  TIMI Major or Minor: Events/100 pt yrs: 1.15 Events/100 pt yrs
  TIMI Major or Minor: n patients with event: 168
  TIMI Major: (%) patients with event: (1.7) %
  TIMI Major: Events/100 pt yrs: 0.78 Events/100 pt yrs
  TIMI Minor bleeding: 3-year Kaplan-Meier estimate: (1.18) %
  TIMI Minor bleeding: n: 55
[2]; [4]
  Non-hemorrhagic adverse reaction: Diarrhea: 3.3%
  Non-hemorrhagic adverse reaction: Dizziness: 4.5%
  Non-hemorrhagic adverse reaction: Dyspnea: 14.2%
[2]; [5]
  Bleeding leading to study drug discontinuation: 3-year Kaplan-Meier estimate: 6.2%
  Bleeding requiring transfusion: 3-year Kaplan-Meier estimate: 2.1%
  Dyspnea leading to study drug discontinuation: (%): 4.3%
  Fatal Bleeding: 3-year Kaplan-Meier estimate: 0.3%
  Intracranial Hemorrhage: 3-year Kaplan-Meier estimate: 0.6%
  TIMI Major bleeding: 3-year Kaplan-Meier estimate: 2.30%
[2]; 60 mg bid vs Placebo
  Bleeding leading to study drug discontinuation: HR: 4.31
  Bleeding requiring transfusion: HR: 3.08
  Dyspnea AE: HR: 2.82
  Dyspnea SAE: HR: 2.91
  Dyspnea leading to study drug discontinuation: HR: 6.35
  Fatal Bleeding: HR: 1.00
  Fatal bleeding or non-fatal intracranial hemorrhage: HR: 1.22
  Intracranial Hemorrhage: HR: 1.33
  TIMI Major bleeding: HR: 2.32
  TIMI Minor bleeding: HR: 3.31
[2]; 60 mg
  proportion of patients who prematurely discontinued treatment: 28.7%
[2]; 90 mg bid
  Dyspnea, 3-year event rate: 18.9%
  Fatal bleeding: ARI (%): −0.15%
  Hypotension: 0.66 events/100 pt years
  ICH: ARI (%): 0.09%
  ICH: NNH: 1111
  TIMI major bleeding: ARI (%): 1.54%
  TIMI major bleeding: NNH: 65
  frequency of death (including bleeding): 4.8%
  frequency of death, bleeding events excluded: 4.4%
  median duration of resolved dyspnea adverse events: 22 days
  TIMI major bleeding events per year if 10,000 patients were started on treatment versus placebo: 41
  Death: (%): (4.6) %
  Death: n: 326
  Non-Cardiovascular death: (%): (2.0) %
  Non-Cardiovascular death: n: 142
[2]; 90 mg bid (N = 6988)
  Adverse event leading to death: (%): (2.3) %
  Adverse event leading to death: n: 161
  Adverse event leading to discontinuation of study drug: (%): (18.7) %
  Adverse event leading to discontinuation of study drug: n: 1306
  Any adverse event: (%): (76.2) %
  Any adverse event: n: 5327
  Any serious adverse event: (%): (21.7) %
  Any serious adverse event: n: 1514
  Bleeding leading to study drug discontinuation: 3-year Kaplan-Meier estimate: (7.80) %
  Bleeding leading to study drug discontinuation: n: 454
  Bleeding requiring transfusion: 3-year Kaplan-Meier estimate: (2.40) %
  Bleeding requiring transfusion: n: 122
  Bradyarrhythmia adverse event: (%): (1.5) %
  Bradyarrhythmia adverse event: n: 105
  Dyspnea AE: (%): (17.22) %
  Dyspnea AE: n: 1204
  Dyspnea SAE: (%): (0.3) %
  Dyspnea SAE: n: 22
  Dyspnea leading to study drug discontinuation: (%): (6.2) %
  Dyspnea leading to study drug discontinuation: n: 430
  Fatal Bleeding: 3-year Kaplan-Meier estimate: (0.11) %
  Fatal Bleeding: n: 6
  Fatal bleeding or non-fatal intracranial hemorrhage: 3-year Kaplan-Meier estimate: (0.71) %
  Fatal bleeding or non-fatal intracranial hemorrhage: n: 33
  Gout adverse event: (%): (1.4) %
  Gout adverse event: n: 99
  Intracranial Hemorrhage: 3-year Kaplan-Meier estimate: (0.56) %
  Intracranial Hemorrhage: n: 29
  Renal adverse event: (%): (2.4) %
  Renal adverse event: n: 166
  Serious adverse event leading to discontinuation of study drug: (%): (3.7) %
  Serious adverse event leading to discontinuation of study drug: n: 256
  TIMI Major bleeding: 3-year Kaplan-Meier estimate: (2.60) %
  TIMI Major bleeding: n: 127
  TIMI Minor bleeding: 3-year Kaplan-Meier estimate: (1.31) %
  TIMI Minor bleeding: n: 66
[2]; [6]
  Bleeding leading to study drug discontinuation: 3-year Kaplan-Meier estimate: 7.8%
  Bleeding requiring transfusion: 3-year Kaplan-Meier estimate: 2.4%
  Dyspnea leading to study drug discontinuation: (%): 6.5%
  Fatal Bleeding: 3-year Kaplan-Meier estimate: 0.1%
  Intracranial Hemorrhage: 3-year Kaplan-Meier estimate: 0.6%
  TIMI Major bleeding: 3-year Kaplan-Meier estimate: 2.60%
[2]; 90 mg bid vs Placebo
  Bleeding leading to study drug discontinuation: HR: 5.67
  Bleeding requiring transfusion: HR: 3.75
  Dyspnea AE: HR: 3.55
  Dyspnea SAE: HR: 3.02
  Dyspnea leading to study drug discontinuation: HR: 8.89
  Fatal Bleeding: HR: 0.58
  Fatal bleeding or non-fatal intracranial hemorrhage: HR: 1.20
  Intracranial Hemorrhage: HR: 1.44
  TIMI Major bleeding: HR: 2.69
  TIMI Minor bleeding: HR: 4.15
[2]; 90 mg
  proportion of patients who prematurely discontinued treatment: 32.0%
[2]; PEGASUS, 60 mg bid
  serum uric acid level increase from baseline: approximately 0.2 mg/dL
[2]; PEGASUS, experimental arm
  Gout, patients: 1.5%
[2]; either dose of ticagrelor
  dyspneic episodes characterized as mild: 57%
  dyspneic episodes characterized as moderate: 38%
[2]; patients on ticagrelor
  dyspnea as a serious adverse event, 3-year rate: 0.3%
[3]; 90 mg twice daily added to aspirin for up to 1 year, acute coronary syndrome
  major adverse cardiovascular events including cardiovascular death compared with clopidogrel 75 mg once daily: reduced
[3]; PLATO substudy, 199 subjects, after one month or after at least 6 months of chronic treatment
  effect on pulmonary function: no indication of an adverse effect on pulmonary function
[3]; PLATO, each treatment group
  reports of gout: 0.6%
[3]; PLATO, ticagrelor 90 mg bid
  serum uric acid level increase from baseline: approximately 0.6 mg/dL
